Target: T1, human m4 receptor (Homo sapiens, UniProt P08173)
T1 construct: expressed in transfected cells
T1 sequence (P08173 1-479): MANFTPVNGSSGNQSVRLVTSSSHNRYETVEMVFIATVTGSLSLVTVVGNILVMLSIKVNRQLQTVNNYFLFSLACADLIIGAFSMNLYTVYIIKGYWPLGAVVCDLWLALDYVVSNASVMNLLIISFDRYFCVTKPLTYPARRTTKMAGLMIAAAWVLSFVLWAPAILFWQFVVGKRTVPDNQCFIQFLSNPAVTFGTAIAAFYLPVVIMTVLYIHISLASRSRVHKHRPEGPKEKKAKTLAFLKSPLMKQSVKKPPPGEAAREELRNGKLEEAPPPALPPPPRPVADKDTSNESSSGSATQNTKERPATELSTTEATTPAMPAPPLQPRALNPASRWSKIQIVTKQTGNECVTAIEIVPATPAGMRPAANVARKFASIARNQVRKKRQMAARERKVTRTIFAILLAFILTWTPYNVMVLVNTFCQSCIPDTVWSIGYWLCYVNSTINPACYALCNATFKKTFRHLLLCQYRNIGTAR
Assay type: cell-based
Conditions: 0.01 µM

Row | Structure (SMILES) | Agonist Activity (%) (M4 Receptors-Stimulating Activity)
1 | CCOC(=O)N1CCC(N2CCC(n3c(=O)n(S(C)(=O)=O)c4ccccc43)CC2)CC1 [Example 20, 1-[1-(1-ethoxycarbonylpiperidin-4-yl)-piperidin-4-yl]-3-(methylsulfonyl)-1,3-dihydro-2H-benzimidazol-2-one] | 94
2 | C#CCn1c(=O)n(C2CCN(C3CCN(C(=O)OC)CC3)CC2)c2ccccc21 [Example 1, 1-[1-(1-methoxycarbonylpiperidin-4-yl)-piperidin-4-yl]-3-(2-propinyl)-1,3-dihydro-2H-benzimidazol-2-one] | 91
3 | CCCCn1c(=O)n(C2CCN(C3CCN(C(=O)OC)CC3)CC2)c2ccccc21 [Example 3, 1-[1-(1-methoxycarbonylpiperidin-4-yl)-piperidin-4-yl]-3-n-butyl-1,3-dihydro-2H-benzimidazol-2-one] | 101
4 | COC(=O)N1CCC(N2CCC(n3c(=O)n(C(C)=O)c4ccccc43)CC2)CC1 [Example 12, 1-[1-(1-methoxycarbonylpiperidin-4-yl)-piperidin-4-yl]-3-acetyl-1,3-dihydro-2H-benzimidazol-2-one] | 95
5 | COC(=O)N1CCC(N2CCC(n3c(=O)n(CCN)c4ccccc43)CC2)CC1 [Example 8, 1-[1-(1-methoxycarbonylpiperidin-4-yl)-piperidin-4-yl]-3-(2-aminoethyl)-1,3-dihydro-2H-benzimidazol-2-one] | 95
6 | C=CCn1c(=O)n(C2CCN(C3CCN(C(=O)OC)CC3)CC2)c2ccccc21 [Example 2, 1-[1-(1-methoxycarbonylpiperidin-4-yl)-piperidin-4-yl]-3-(2-propenyl)-1,3-dihydro-2H-benzimidazol-2-one] | 96
7 | COC(=O)N1CCC(N2CCC(n3c(=O)n(CC(C)=O)c4ccccc43)CC2)CC1 [Example 7, 1-[1-(1-methoxycarbonylpiperidin-4-yl)-piperidin-4-yl]-3-(2-oxopropyl)-1,3-dihydro-2H-benzimidazol-2-one] | 97
8 | COC(=O)N1CCC(N2CCC(n3c(=O)n(C)c4ccccc43)CC2)CC1 [Example 4, 1-[1-(1-methoxycarbonylpiperidin-4-yl)-piperidin-4-yl]-3-methyl-1,3-dihydro-2H-benzimidazol-2-one] | 96
9 | COC(=O)N1CCC(N2CCC(n3c(=O)n(CC(F)(F)F)c4ccccc43)CC2)CC1 [Example 5, 1-[1-(1-methoxycarbonylpiperidin-4-yl)-piperidin-4-yl]-3-(2,2,2-trifluoroethyl)-1,3-dihydro-2H-benzimidazol-2-one] | 90
10 | COC(=O)Cn1c(=O)n(C2CCN(C3CCN(C(=O)OC)CC3)CC2)c2ccccc21 [Example 6, 1-[1-(1-methoxycarbonylpiperidin-4-yl)-piperidin-4-yl]-3-(methoxycarbonylmethyl)-1,3-dihydro-2H-benzimidazol-2-one] | 92

Source: patent US6699880B1 (priority 1999, dated 2004)
